Entries after “also recorded” stand apart in the source; their conditions may differ. Square brackets hold non-standard residues; d marks the D form. Ends that are not written are not given here. Nap = naphthyl group, N-terminal cap; Aib = CC(C)(N)C(=O)O
Test system: SARS-CoV-2 Omicron variant pseudovirus
Type: cell-based
Details: for fluorescence of peptide groups versus no-peptide control: N=3

## NapFFTLUFLTUTEKKKK (Nap-FFTL[Aib]FLT[Aib]TEKKKK)
  inhibition of SARS-CoV-2 Omicron pseudovirus infection / replication in mammalian cells: effectively inhibited viral replication; also recorded: significantly inhibited
  fluorescence of peptide groups versus no-peptide control: statistically (p<0.01) less than

## NapFFMLUFLMUMEKKKK (Nap-FFML[Aib]FLM[Aib]MEKKKK)
  inhibition of SARS-CoV-2 Omicron pseudovirus infection / replication in mammalian cells: effectively inhibited viral replication; also recorded: significantly inhibited
  fluorescence of peptide groups versus no-peptide control: statistically (p<0.01) less than

— patent US11548919B1, “SARS-CoV-2 polypeptide inhibitors directed against the Env TM domain and methods of treatment using said inhibitors” (priority 2022, dated 2023)
